Measurements as given in patent publication US8415469B2, “Compounds and methods for kinase modulation, and indications therefor” (Plexxikon Inc., priority 2005, dated 2013).

Key:
Type in all cases: biochemical
EphB2 = molecular target: T1, EphB2 (Homo sapiens, UniProt P29323); assay: Z'-Lyte FRET kinase assay (Invitrogen), EphB2; conditions: read-out: IC50, activity toward kinase EphB2
T1 construct: purchased Invitrogen (assay run by Invitrogen)
T1 sequence (P29323 19-1055): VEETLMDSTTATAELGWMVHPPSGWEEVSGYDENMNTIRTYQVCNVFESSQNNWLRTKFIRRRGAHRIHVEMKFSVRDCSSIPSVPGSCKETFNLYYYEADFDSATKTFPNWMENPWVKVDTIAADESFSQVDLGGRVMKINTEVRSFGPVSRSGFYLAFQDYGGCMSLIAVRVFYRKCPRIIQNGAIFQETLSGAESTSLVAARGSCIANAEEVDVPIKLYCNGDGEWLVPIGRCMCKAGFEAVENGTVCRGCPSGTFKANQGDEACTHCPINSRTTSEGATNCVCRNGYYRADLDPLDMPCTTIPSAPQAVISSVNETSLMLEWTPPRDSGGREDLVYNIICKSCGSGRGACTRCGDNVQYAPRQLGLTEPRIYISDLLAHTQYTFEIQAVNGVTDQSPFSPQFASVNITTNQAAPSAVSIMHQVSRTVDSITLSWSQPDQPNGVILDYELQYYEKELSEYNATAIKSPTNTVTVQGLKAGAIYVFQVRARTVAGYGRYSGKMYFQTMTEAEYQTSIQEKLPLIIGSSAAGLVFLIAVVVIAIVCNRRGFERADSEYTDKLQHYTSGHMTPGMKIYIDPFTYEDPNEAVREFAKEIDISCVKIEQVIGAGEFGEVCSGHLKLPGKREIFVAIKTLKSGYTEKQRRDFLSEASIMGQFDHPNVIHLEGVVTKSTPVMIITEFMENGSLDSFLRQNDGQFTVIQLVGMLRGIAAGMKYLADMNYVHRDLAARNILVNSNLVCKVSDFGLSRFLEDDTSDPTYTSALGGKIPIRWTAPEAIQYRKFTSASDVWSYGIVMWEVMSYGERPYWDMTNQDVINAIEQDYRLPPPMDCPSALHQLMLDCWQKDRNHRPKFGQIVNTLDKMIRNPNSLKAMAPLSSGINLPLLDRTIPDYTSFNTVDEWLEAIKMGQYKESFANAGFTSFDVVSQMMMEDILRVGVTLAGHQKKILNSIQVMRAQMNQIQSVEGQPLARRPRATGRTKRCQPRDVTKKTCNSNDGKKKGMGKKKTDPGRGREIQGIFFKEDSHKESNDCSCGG
Outline: (§1)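 Serially diluted compound (1% DMSO final) is mixed with kinase plus 2 μM peptide substrate in pH 7.5 HEPES buffer, then ATP is added to 10 μM. After 1 h at room temperature, site-specific protease is added for another hour, reactions are stopped and fluorescence ratio measured.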

Ret = molecular target: T2, Ret (Homo sapiens, UniProt P07949); assay: AlphaScreen kinase assay, Ret; conditions: read-out: IC50, activity toward kinase Ret
T2 construct: P1378.pET-SF BI-PTP RET H661-R1012 HIS; made in house
T2 sequence (P07949 with tags, fused parts or gaps): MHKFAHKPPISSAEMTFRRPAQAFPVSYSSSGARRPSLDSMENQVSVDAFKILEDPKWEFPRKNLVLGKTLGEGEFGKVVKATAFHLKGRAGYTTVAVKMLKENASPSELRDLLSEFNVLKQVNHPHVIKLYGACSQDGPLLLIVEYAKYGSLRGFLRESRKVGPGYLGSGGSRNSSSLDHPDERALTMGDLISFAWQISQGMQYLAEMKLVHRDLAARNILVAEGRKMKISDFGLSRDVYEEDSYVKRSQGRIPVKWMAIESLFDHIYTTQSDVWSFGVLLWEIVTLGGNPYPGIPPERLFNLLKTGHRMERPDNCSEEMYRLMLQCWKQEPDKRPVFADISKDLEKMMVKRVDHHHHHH

B-Raf V600E = molecular target: T3, B-Raf V600E (Homo sapiens, UniProt P15056, V600E); assay: AlphaScreen kinase assay, B-Raf V600E; conditions: read-out: IC50, activity toward kinase B-Raf V600E
T3 construct: P4254. pFastBacBD-CDC37 BRAF D437-K722-X, V600E; His6 with pFastBac HT leader (TEV site) (N); made in house; host or cells: Sf9 (baculovirus; chaperone CDC37 co-expressed)
T3 sequence (P15056 with tags, fused parts or gaps V600E): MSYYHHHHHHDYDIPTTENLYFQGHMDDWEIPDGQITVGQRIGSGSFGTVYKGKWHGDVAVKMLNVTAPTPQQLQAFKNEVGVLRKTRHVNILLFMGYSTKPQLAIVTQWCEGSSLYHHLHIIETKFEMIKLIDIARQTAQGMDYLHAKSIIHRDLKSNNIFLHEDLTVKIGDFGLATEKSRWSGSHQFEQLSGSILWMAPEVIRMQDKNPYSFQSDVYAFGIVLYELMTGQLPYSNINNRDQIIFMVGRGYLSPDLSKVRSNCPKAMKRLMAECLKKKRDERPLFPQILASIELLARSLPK

B-Raf = molecular target: T4, B-Raf (Homo sapiens, UniProt P15056); assay: AlphaScreen kinase assay, B-Raf; conditions: read-out: IC50, activity toward kinase B-Raf
T4 construct: purchased Upstate Biotechnology
T4 sequence (P15056 whole entry): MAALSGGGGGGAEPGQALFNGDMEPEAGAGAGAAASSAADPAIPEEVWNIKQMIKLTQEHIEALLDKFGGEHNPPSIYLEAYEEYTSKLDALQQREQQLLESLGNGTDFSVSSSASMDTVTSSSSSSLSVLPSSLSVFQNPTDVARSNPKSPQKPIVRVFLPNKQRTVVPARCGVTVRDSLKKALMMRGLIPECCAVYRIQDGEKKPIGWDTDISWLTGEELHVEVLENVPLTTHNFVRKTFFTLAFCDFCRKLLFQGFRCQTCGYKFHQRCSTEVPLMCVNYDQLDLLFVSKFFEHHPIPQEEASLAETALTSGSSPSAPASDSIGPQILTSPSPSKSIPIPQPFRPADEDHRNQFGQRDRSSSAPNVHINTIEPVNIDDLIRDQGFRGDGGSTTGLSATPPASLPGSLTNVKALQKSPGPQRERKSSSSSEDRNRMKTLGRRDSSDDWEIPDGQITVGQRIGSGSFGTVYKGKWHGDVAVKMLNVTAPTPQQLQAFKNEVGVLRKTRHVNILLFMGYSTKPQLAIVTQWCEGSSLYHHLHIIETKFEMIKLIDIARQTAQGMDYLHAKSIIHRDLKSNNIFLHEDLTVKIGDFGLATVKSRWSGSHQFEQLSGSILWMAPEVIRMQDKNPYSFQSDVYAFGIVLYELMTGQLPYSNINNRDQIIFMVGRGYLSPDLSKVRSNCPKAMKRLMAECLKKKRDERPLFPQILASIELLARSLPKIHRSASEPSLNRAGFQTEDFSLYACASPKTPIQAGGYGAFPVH

Yes = molecular target: T5, Yes (Homo sapiens, UniProt P07947); assay: Z'-Lyte FRET kinase assay (Invitrogen), Yes; conditions: read-out: IC50, activity toward kinase Yes
T5 construct: purchased Invitrogen (Carlsbad, Calif.), screening service
T5 sequence (P07947 whole entry): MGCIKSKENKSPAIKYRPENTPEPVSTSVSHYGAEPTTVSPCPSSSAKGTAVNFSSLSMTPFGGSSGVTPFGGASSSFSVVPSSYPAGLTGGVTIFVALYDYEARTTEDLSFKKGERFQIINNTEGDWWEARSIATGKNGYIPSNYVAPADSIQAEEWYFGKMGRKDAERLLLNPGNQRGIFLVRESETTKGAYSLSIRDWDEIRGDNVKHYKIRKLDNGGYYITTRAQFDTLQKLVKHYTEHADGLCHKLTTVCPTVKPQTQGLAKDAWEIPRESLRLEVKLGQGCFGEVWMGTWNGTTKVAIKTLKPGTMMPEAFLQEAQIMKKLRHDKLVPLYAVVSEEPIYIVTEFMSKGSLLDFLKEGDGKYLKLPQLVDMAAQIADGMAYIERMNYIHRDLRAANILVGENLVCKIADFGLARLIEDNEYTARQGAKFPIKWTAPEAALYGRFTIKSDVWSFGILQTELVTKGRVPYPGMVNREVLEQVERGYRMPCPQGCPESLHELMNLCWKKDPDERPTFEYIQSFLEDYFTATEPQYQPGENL
Outline: as §1

| IC50 (EphB2) [µM] | IC50 (Ret) [µM] | IC50 (B-Raf V600E) [µM] | IC50 (B-Raf) [µM] | IC50 (Yes) [µM] | Compound |
| --- | --- | --- | --- | --- | --- |
| – | ≤ 10 | ≤ 10 | – | ≤ 10 | O=C(c1ccccc1F)c1c[nH]c2ncc(-c3ccsc3)cc12 [Compound P-0134] |
| – | – | ≤ 10 | ≤ 10 | ≤ 10 | CN(C)S(=O)(=O)Nc1ccc(F)c(Cc2c[nH]c3ncc(-c4cccnc4)cc23)c1F [Compound P-0166] |
| – | ≤ 10 | ≤ 10 | ≤ 10 | ≤ 10 | CS(=O)(=O)c1cccc(-c2ccnc3[nH]cc(C(=O)c4cc(F)ccc4F)c23)c1 [Compound P-0171] |
| – | ≤ 10 | ≤ 10 | ≤ 10 | – | O=C(c1cccc(O)c1)c1c[nH]c2ncc(-c3cccs3)cc12 [Compound P-0196] |
| – | ≤ 10 | ≤ 10 | ≤ 10 | – | O=C(Nc1ccc(Cc2c[nH]c3ncccc23)cc1)Nc1cccc(C(F)(F)F)c1 [Compound P-0262, 1-[4-(1H-Pyrrolo[2,3-b]pyridin-3-ylmethyl)-phenyl]-3-(3-trifluoromethyl-phenyl)-urea] |
| – | ≤ 10 | ≤ 10 | ≤ 10 | – | O=C(c1cccc(O)c1F)c1c[nH]c2ncc(-c3cccs3)cc12 [Compound P-0521, (2-fluoro-3-hydroxy-phenyl)-(5-thiophen-2-yl-1H-pyrrolo[2,3-b]pyridin-3-yl)-methanone] |
| – | ≤ 10 | ≤ 10 | ≤ 10 | ≤ 10 | CCCS(=O)(=O)Nc1ccc(F)c(C(=O)c2c[nH]c3ncc(-c4ccccc4)cc23)c1F [Compound P-0636, Propane-1-sulfonic acid [2,4-difluoro-3-(5-phenyl-1H-pyrrolo[2,3-b]pyridine-3-carbonyl)-phenyl]-amide] |
| – | – | ≤ 10 | ≤ 10 | – | CCCS(=O)(=O)Nc1ccc(F)c(C(=O)c2c[nH]c3ncc(OC)cc23)c1F [Compound P-0806, Propane-1-sulfonic acid [2,4-difluoro-3-(5-methoxy-1H-pyrrolo[2,3-b]pyridine-3-carbonyl)-phenyl]-amide] |
| – | – | ≤ 10 | ≤ 10 | – | CCCC(=O)Nc1ccc(F)c(Cc2c[nH]c3ncc(-c4cccnc4)cc23)c1F [Compound P-1280] |
| – | – | ≤ 10 | ≤ 10 | – | CCCCNC(=O)Nc1ccc(F)c(C(=O)c2c[nH]c3ncc(-c4cccnc4)cc23)c1F [Compound P-1318, 1-Butyl-3-[2,4-difluoro-3-(5-pyridin-3-yl-1H-pyrrolo[2,3-b]pyridine-3-carbonyl)-phenyl]-urea] |
| – | – | ≤ 10 | ≤ 10 | – | COc1cccc(C(=O)c2c[nH]c3ncc(-c4cccc(NC(C)=O)c4)cc23)c1F [Compound P-1336, N-{3-[3-(2-Fluoro-3-methoxy-benzoyl)-1H-pyrrolo[2,3-b]pyridin-5-yl]-phenyl}-acetamide] |
| – | – | ≤ 10 | – | – | OCCOc1ccc(F)c(Cc2c[nH]c3ncc(-c4cccnc4)cc23)c1F [Compound P-1394, 2-[2,4-Difluoro-3-(5-pyridin-3-yl-1H-pyrrolo[2,3-b]pyridin-3-ylmethyl)-phenoxy]-ethanol] |
| – | – | ≤ 10 | – | – | COc1cc(OC)cc(C(=O)c2c[nH]c3ncc(-c4cccc(NS(C)(=O)=O)c4)cc23)c1 [Compound P-1426, N-{3-[3-(3,5-Dimethoxy-benzoyl)-1H-pyrrolo[2,3-b]pyridin-5-yl]-phenyl}-methanesulfonamide] |

More lines, now with the values behind:

| Compound | IC50 (EphB2) [µM] | IC50 (Ret) [µM] | IC50 (B-Raf V600E) [µM] | IC50 (B-Raf) [µM] | IC50 (Yes) [µM] |
| --- | --- | --- | --- | --- | --- |
| CC(=O)Nc1cccc(-c2cnc3[nH]cc(C(=O)c4cc(O)ccc4F)c3c2)c1 [Compound P-0001] | ≤ 10 | ≤ 10 | ≤ 10 | ≤ 10 | – |
| Nc1cccc(-c2cnc3[nH]cc(C(=O)c4cc(O)ccc4F)c3c2)c1 [Compound P-0002] | – | ≤ 10 | ≤ 10 | ≤ 10 | – |
| Nc1cccc(-c2cnc3[nH]cc(C(=O)c4cccc(O)c4)c3c2)c1 [Compound P-0003] | ≤ 10 | ≤ 10 | ≤ 10 | ≤ 10 | – |
| Nc1cccc(-c2cnc3[nH]cc(C(=O)c4cccc(O)c4F)c3c2)c1 [Compound P-0004, [5-(3-amino-phenyl)-1H-pyrrolo[2,3-b]pyridin-3-yl]-(2-fluoro-3-hydroxy-phenyl)methanone] | – | ≤ 10 | ≤ 10 | ≤ 10 | – |
| CS(=O)(=O)c1cccc(-c2cnc3[nH]cc(C(=O)c4cc(O)ccc4F)c3c2)c1 [Compound P-0008, (2-Fluoro-5-hydroxy-phenyl)-[5-(3-methanesulfonyl-phenyl)-1H-pyrrolo[2,3-b]pyridin-3-yl]-methanone] | – | ≤ 10 | ≤ 10 | ≤ 10 | – |
| O=C(c1ccc(O)cc1)c1c[nH]c2ncc(-c3cccs3)cc12 [Compound P-0024, (4-Hydroxy-phenyl)-(5-thiophen-2-yl-1H-pyrrolo[2,3-b]pyridin-3-yl)-methanone] | – | ≤ 10 | ≤ 10 | ≤ 10 | ≤ 10 |
| CS(=O)(=O)c1cccc(-c2cnc3[nH]cc(C(=O)c4cccc(O)c4F)c3c2)c1 [Compound P-0026, (2-Fluoro-3-hydroxy-phenyl)-[5-(3-methanesulfonylphenyl)1H-pyrrolo[2,3-b]pyridin-3-yl]-methanone] | – | ≤ 10 | ≤ 10 | ≤ 10 | – |
| O=C(c1cccc(O)c1)c1c[nH]c2nccc(-c3cc(F)cc(F)c3)c12 [Compound P-0039] | – | ≤ 10 | ≤ 10 | – | – |
| Nc1cccc(-c2ccnc3[nH]cc(C(=O)c4cc(F)ccc4F)c23)c1 [Compound P-0046] | – | ≤ 10 | ≤ 10 | – | ≤ 10 |
| NC(=O)c1cccc(-c2ccnc3[nH]cc(C(=O)c4cc(F)ccc4F)c23)c1 [Compound P-0049] | – | ≤ 10 | ≤ 10 | – | ≤ 10 |
| O=C(c1ccccc1F)c1c[nH]c2nccc(-c3ccsc3)c12 [Compound P-0051] | – | ≤ 10 | ≤ 10 | – | ≤ 10 |
| Cc1ccc(S(=O)(=O)NCc2c[nH]c3ncccc23)cc1 [Compound P-0058] | – | ≤ 10 | – | – | – |
| CS(=O)(=O)Nc1cccc(-c2ccnc3[nH]cc(C(=O)c4cc(F)ccc4F)c23)c1 [Compound P-0060] | – | ≤ 10 | ≤ 10 | ≤ 10 | ≤ 10 |
| O=C(c1cc(F)ccc1F)c1c[nH]c2nccc(-c3cccnc3)c12 [Compound P-0063] | – | ≤ 10 | ≤ 10 | – | ≤ 10 |
| Cc1c(NS(C)(=O)=O)cccc1C(=O)c1c[nH]c2ncc(-c3ccccc3)cc12 [Compound P-0082, N-[2-Methyl-3-(5-phenyl-1H-pyrrolo[2,3-b]pyridine-3-carbonyl)-phenyl]-methanesulfonamide] | – | ≤ 10 | ≤ 10 | ≤ 10 | ≤ 10 |
| OC(c1c(F)ccc(F)c1F)c1c[nH]c2ncc(-c3cccnc3)cc12 (centres unmarked) [Compound P-0101] | – | ≤ 10 | – | – | ≤ 10 |
| Oc1ccc(F)c(Cc2c[nH]c3ncc(Br)cc23)c1F [Compound P-0122, 3-(5-Bromo-1H-pyrrolo[2,3-b]pyridin-3-ylmethyl)-2,4-difluoro-phenol] | – | ≤ 10 | ≤ 10 | ≤ 10 | ≤ 10 |
